We go through 4 molecules from patent US5861405A, “S-substituted 1,3,7-trialkyl-xanthine derivatives” (priority 1994, dated 1999).

The test system of assay [1] is locomotor activity. The note with it: in vivo, cited from earlier work.
Assay [2] deals with rat brain A2a- vs. A1-receptors. The note with it: cited from earlier work.
Assay [3] has as its system locomotor activity in mice. The following applies: postinjection (Baumgold et al.); cited from earlier work.
For assay [4], the system named is locomotor activity in mice. Description: Locomotor activity in mice, open field (Digiscan activity monitor). The format is in vivo, mouse. The note with it: for Behavioral stimulation: typical dose 10 (mg/kg, i.p.).
Experimental: Adult male mice of the NIH (Swiss) strain weighing 25-30 g were housed in groups of 10 animals per cage with a light-dark cycle of 12:12 h. The animals were given free access to standard pellet food and water and were acclimatized to laboratory conditions for 24 h prior to testing. Each animal was used only once in the activity monitor.
Locomotor activity of individual animals was studied in an open field using a Digiscan activity monitor (Omnitech Electronics Inc., Columbus, Ohio) equipped with an IBM-compatible computer. The computer-tabulated measurements represent multivariate locomotor analysis with specific measures, such as simultaneous measurements of ambulatory, rearing, stereotypical, and rotational behaviors. Data were collected in the morning, for three consecutive intervals of 10 minutes each, and analyzed separately and as a group. Statistical analysis was performed using the Student t test. […] Drugs were administered i.p. in a volume corresponding to 5 ml/kg body weight. Where applicable, the antagonist was injected 10 minutes before the agonist. ED50 values were determined using regression analysis on the InPlot software (GraphPAD, San Diego, Calif.).
Assay [5] addresses T1, rat A1 cortical receptors (Rattus norvegicus, UniProt P25099).
T1 construct: Rat cerebral cortical membranes and striatal membranes were prepared; from tissue; host or cells: rat cerebral cortex membranes
T1 sequence (P25099 1-326): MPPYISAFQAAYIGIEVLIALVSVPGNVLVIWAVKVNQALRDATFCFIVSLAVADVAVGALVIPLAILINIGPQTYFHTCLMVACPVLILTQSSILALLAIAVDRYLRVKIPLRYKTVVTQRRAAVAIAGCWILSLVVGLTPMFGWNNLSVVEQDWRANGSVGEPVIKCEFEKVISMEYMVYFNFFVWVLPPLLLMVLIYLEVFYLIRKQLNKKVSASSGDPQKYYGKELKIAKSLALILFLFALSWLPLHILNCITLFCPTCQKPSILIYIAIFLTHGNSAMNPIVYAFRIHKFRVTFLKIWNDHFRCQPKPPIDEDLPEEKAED
Kind of assay: Radioligand binding, [3H]N6-phenylisopropyladenosine ([3H]PIA), rat cortical A1 receptors. The note with it: Table VI; vs [3H]PIA; read-out: Inhibition of binding (Ki), rat cortex A1.

The target in assay [6] is A2 receptors, rat brain. The note with it: read-out: Ki (A2a), Erickson et al.; cited from earlier work.
Assay [7] addresses A2 receptors, rat striatum. The note with it: vs [3H]NECA in rat striatum; read-out: Ki (A2a), Shimada et al.; cited from earlier work.
Assay [8] has as its target rat striatal A2a receptors (Rattus norvegicus, UniProt P30543). Description: Radioligand binding, [3H]CGS 21680, rat striatal A2a receptors. More on the design: Rat cerebral cortical membranes and striatal membranes were prepared; from tissue; host or cells: rat striatal membranes. The following applies: Table I; vs [3H]CGS21680 (5 nM), rat striatal A2 receptors; read-out: Ki (A2a).
Experimental: The 1,3,7-trialkyl-8-substituted xanthine compounds of the present invention were tested in a radioligand binding assay for affinity at adenosine receptors in rat brain membranes.
The stock solutions were diluted with DMSO to a concentration of ≥0.1 mM prior to adding to the aqueous medium. The final concentration of DMSO in the assay medium was generally 2%.
Test drugs were dissolved in DMSO and added in 10 μl aliquots, resulting in a final DMSO concentration of 2%. Non-specific binding was defined using 20 μM 2-chloroadenosine. Filtration was carried out using a Brandel Cell Harvester, as above, using Tris HCl/MgCl2 as the washing buffer.
At least six different concentrations spanning three orders of magnitude, adjusted appropriately for the IC50 of each compound, were used.

Assay [9] has as its target A1 receptors, guinea pig brain. The following applies: vs [3H]CHA in guinea pig brain; read-out: Ki (A1), Shimada et al.; cited from earlier work.
Assay [10] deals with T2, A2a receptor, human platelets (Homo sapiens, UniProt P29274).
T2 construct: PC12) cell membranes or in human platelets; from tissue; host or cells: human platelets
T2 sequence (P29274 whole entry): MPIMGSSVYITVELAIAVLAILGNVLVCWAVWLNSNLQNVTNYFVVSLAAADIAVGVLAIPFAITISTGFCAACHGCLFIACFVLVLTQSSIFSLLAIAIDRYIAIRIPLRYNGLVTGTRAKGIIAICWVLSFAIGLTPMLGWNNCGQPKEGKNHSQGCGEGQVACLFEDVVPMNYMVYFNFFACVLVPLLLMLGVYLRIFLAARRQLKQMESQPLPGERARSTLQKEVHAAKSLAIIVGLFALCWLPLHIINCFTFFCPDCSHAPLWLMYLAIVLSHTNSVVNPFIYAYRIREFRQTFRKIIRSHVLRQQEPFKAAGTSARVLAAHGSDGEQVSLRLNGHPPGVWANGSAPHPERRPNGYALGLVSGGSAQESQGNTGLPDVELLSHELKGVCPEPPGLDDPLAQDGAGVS
Kind of assay: Antagonism of NECA-elicited stimulation of adenylate cyclase, human platelets. The format is biochemical.

The target in assay [11] is A2a receptors, rat striatum (Rattus norvegicus, UniProt P30543). Description: Radioligand binding vs [3H]N-ethylcarboxamidoadenosine, rat striatum. Also noted: Striatal tissue was isolated by dissection of rabbit, bovine, and rat brain; tissue Pel-Freeze Biologicals Co; host or cells: rat striatal membranes (frozen brain). The following applies: Table VI; vs [3H]NECA; read-out: Inhibition of binding (Ki), rat striatum A2a.
Sequence of A2a receptors, rat striatum (P30543 whole entry): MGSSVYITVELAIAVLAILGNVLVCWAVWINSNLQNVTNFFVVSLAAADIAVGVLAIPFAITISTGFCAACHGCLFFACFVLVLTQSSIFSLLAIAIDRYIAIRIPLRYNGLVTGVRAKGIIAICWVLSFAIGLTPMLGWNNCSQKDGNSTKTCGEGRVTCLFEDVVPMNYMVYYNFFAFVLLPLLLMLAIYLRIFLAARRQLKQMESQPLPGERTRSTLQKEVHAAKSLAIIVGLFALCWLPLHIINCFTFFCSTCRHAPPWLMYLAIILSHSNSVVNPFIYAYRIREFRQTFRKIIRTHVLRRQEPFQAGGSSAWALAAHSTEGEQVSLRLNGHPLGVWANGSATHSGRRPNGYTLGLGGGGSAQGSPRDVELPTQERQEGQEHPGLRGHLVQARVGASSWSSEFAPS

Assay [12] concerns the target A1 receptor, rat adipocytes (Rattus norvegicus, UniProt P25099). Description: biochemical.
Experimental: KB values were calculated using the Schild equation from the ratio of EC50 values for agonist in the presence and absence of antagonist.
In assay [13] the target is T3, A2a receptor, rat pheochromocytoma (PC12) cells (Rattus norvegicus, UniProt P30543).
T3 construct: via an A2a receptor in rat pheochromocytoma (PC12) cell membranes; endogenous in cells; host or cells: PC12 cells (rat pheochromocytoma)
T3 sequence (P30543 whole entry): as above
Kind of assay: biochemical. The following applies: Table VI; read-out: Adenylate cyclase (KB), rat PC12 cells A2a.

Molecules are shown by their SMILES.

Sequence of rat striatal A2a receptors (P30543 whole entry): as above

In the case of `Nc1nc2ccc(Cl)cc2n2c(-c3ccccc3)nnc12` [CP66,713], the “effect on A1 depression of locomotor activity” value in assay [1] (same dose) is “no effect on A1 depression of locomotor activity”. The “antagonism of A2 depression of locomotor activity” value in [1] is “partial antagonism of A2 depression of locomotor activity”. Further, the “selectivity A2a vs. A1” value in assay [2] was 12 fold.
On to `Cn1c(=O)c2[nH]c(C3CCCC3)nc2n(C)c1=O` [CPT, 8-cyclopentyltheophylline, reference compound], for which, in assay [3], the “time until stimulatory effect disappears” value is at most 20 min. Besides, the “locomotor stimulation, in words” value in [4] (mice) was “moderate, but transient, locomotor stimulation”. Also, the Behavioral stimulation result in assay [4] is on record as “++”. Moreover, in assay [5], the Ki came out at 24 nM.
As to `CCCn1c(=O)c2[nH]c(/C=C/c3ccccc3)nc2n(CCC)c1=O` [Compound 47], the Ki in [6] was 85 nM; in assay [7] it was 26 nM; in [8] it was 44 ± 19 nM; in [9], 1800 nM.
As to `C#CCn1c(=O)c2c(ncn2C)n(C)c1=O` [DMPX, 3,7-dimethyl-1-propargylxanthine], the Kb was 4000 nM in assay [10], 94000 nM in assay [12] and 9600 nM in assay [13]. For the same molecule, the Ki in assay [11] was 16000 nM; in assay [5], 45000 nM. Further, the Behavioral stimulation result in assay [4] is on record as “+++”.

The Ki is a measure of affinity in units of concentration, obtained from inhibition or displacement.
